Source: EP4741391A1, “NMT INHIBITOR, AND PREPARATION METHOD THEREFOR AND USE THEREOF” (Nanjing Synnocare Pharmaceutical Technology Co., Ltd., priority 2023, dated 2025)

Legend:
NMT1 enzyme = target: T1, NMT1 enzyme (Homo sapiens, UniProt P30419); assay: Inhibitory activity on NMT1 enzyme catalysis (fluorescence intensity, CPM probe); format: biochemical; details: 6 nM NMT1 enzyme, 1.25 µM myristoyl-CoA, 20 µM HSPP60 SRC peptide, 45 minutes at 25 °C
T1 sequence (P30419 1-496): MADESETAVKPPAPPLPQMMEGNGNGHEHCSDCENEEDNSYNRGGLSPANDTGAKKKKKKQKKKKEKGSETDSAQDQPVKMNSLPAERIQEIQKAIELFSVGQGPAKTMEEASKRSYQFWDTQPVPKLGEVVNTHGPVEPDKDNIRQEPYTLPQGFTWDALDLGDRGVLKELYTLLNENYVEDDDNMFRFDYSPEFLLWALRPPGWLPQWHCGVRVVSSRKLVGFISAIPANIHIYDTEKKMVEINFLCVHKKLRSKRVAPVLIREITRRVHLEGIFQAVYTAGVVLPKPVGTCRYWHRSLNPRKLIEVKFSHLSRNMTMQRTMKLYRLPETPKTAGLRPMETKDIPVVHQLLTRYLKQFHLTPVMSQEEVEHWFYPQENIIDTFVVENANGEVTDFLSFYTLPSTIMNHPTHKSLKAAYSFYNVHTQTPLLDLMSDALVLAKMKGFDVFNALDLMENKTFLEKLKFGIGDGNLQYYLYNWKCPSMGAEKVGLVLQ
Experimental: This study evaluated the ability of the compounds of the invention to inhibit NMT1 catalytic activity in vitro. The experiment used a FI (Fluorescence Intensity) analysis method, characterizing NMT1 inhibitors under conditions of 1.25 µM myristoyl-CoA (Lithium salt, Sigma, M4414). In this experiment, a synthesized peptide with the sequence H-Gly-Ser-Asn-Lys-Ser-Lys-Pro-Lys-NH2, HSPP60SRC (Nanjing Peptide Industry, NJP23953), was used as the reaction substrate. The final concentration of the NMT1 enzyme was 6 nM, the final concentration of CPM (Reactive thiol fluorescence probe, Invitrogen, D346) was 1 µM, the final concentration of HSPP60 SRC was 20 µM, and the final concentration of DMSO was 0.5%.
Compounds were dissolved in DMSO to obtain 10 mM stock solutions. Dose-response solutions were prepared with a top endpoint compound concentration of 3 mM, followed by three-fold serial dilutions in DMSO, totaling ten data points. Using an ECHO acoustic liquid handler (BECKMAN, ECHO 655 system), 0.05 µL of the diluted compound solutions was transferred to a 384-well assay plate (Corning, CLS4514). Then, 2.5 µL of the NMT1 enzyme working solution was added to the 384-well assay plate, followed by incubation at 25 °C for 10 minutes. Subsequently, 5 µL of the CPM and myristoyl-CoA working solution was added, the plate was centrifuged at 1000 rpm for 1 minute, and then 2.5 µL of the HSPP60 SRC working solution was added to initiate the reaction. The reaction was incubated at 25 °C for 45 minutes. The FI signal ([…]; ex: 405 nm) was detected using an HTS high-throughput screening multifunctional microplate reader (BMG, PHERA star FSX).
The inhibition rate of the compounds on NMT1 enzyme catalytic activity was calculated using the following formula: Inhibition Percentage (%) = 100 * (Mean of DMSO group - Mean of Compound group) / (Mean of DMSO group - Mean of Blank control group). The IC50 curve of the compounds was fitted using the software XLfit 5.5.0 according to the nonlinear regression equation. Table 1 provides the inhibitory activity of the compounds of the invention on NMT1 enzyme catalysis.

MV-4-11 cells = assay: Anti-proliferative activity against MV-4-11 cells (three-day cell viability chemiluminescence); format: cell-based; details: MV-4-11 human monocytic leukemia cells, three days of exposure
Experimental: This study utilized a cell proliferation assay to analyze the cytotoxicity of MV-4-11 human monocytic leukemia cells after three days of exposure to NMT1 inhibitors. The MV-4-11 cell line was purchased from Nanjing Cobuilder Biotechnology Co., Ltd., and cultured in IMDM medium (Viva cell) in an incubator (Thermo) at 37 °C with 5% CO2. In this experiment, NMT1 inhibitors were dissolved in DMSO to obtain 600 µM stock solutions. Dose-response solutions were prepared with a top endpoint compound concentration of 3 µM, followed by three-fold serial dilutions in DMSO, totaling eight data points. The final concentration of DMSO was 0.5%.
MV-4-11 cells were seeded into a white 96-well plate, 80 µL of cell suspension per well, containing 6000 MV-4-11 cells. The cell plate was placed in the CO2 incubator for overnight culture. Then, 20 µL of NMT1 inhibitor solutions at different concentrations were added to the wells. The 96-well plate was placed back into the incubator for three days. Another cell plate was prepared, and the signal was read on the day of drug addition to serve as the maximum value (Max value in the equation below) for data analysis. To this cell plate, 25 µL of cell viability chemiluminescence detection reagent was added per well, followed by incubation at room temperature for 10 minutes to stabilize the luminescence signal. A multi-label analyzer was used for reading.
The raw data were converted into inhibition rates using the equation (Sample - Min) / (Max - Min) * 100%. The IC50 values were then determined by fitting a four-parameter curve (using the "log(inhibitor) vs. response - Variable slope" model in GraphPad Prism). Min: wells treated with 0.5% DMSO; Max: Day 0 wells. Table 1 provides the inhibitory activity of the compounds of the invention on MV-4-11 cell proliferation. Table 1: Compound Inhibitory Activity against NMT1 Enzyme (IC50) and Anti-proliferative Activity against MV-4-11 Cells (IC50)

| Structure (SMILES) | IC50 (NMT1 enzyme) [nM] | IC50 (MV-4-11 cells; Homo sapiens, MV4-11, 72 h) [nM] | IC50 (MV-4-11 cells) [nM] |
| --- | --- | --- | --- |
| CCc1nn(C)c(C)c1CCOc1c(-c2ccn3ncc(CNC)c3c2)ccc(F)c1F [Compound 24, 5-(2-{[2-(3-ethyl-1,5-dimethylpyrazol-4-yl)ethyl]oxy}-3,4-difluorophenyl)-3-[(methylamino)methyl]pyrazolo[1,5-a]pyridine] | 2.81 | 24.9 |  |
| CNCc1cnn2ccc(-c3ccc(F)c(F)c3OCCc3c(C(C)C)nn(C)c3C)cc12 [Compound 25, 5-[2-({2-[1,5-dimethyl-3-(prop-2-yl)pyrazol-4-yl]ethyl}oxy)-3,4-difluorophenyl]-3-[(methylamino)methyl]pyrazo lo[1,5-a]pyridine] | 3.26 | 25.8 |  |
| CNCc1cnn2ccc(-c3ccc(F)c(F)c3OCCc3c(CF)nn(C)c3C)cc12 [Compound 26, 5-[3,4-difluoro-2-({2-[3-(fluoromethyl)-1,5-dimethylpyrazol-4-yl]ethyl}oxy)phenyl]-3-[(methylamino)methyl]p yrazolo[1,5-a]pyridine] | 2.48 | 12.3 |  |
| CNCc1cnn2ccc(-c3ccc(F)c(F)c3OCCc3c(C#N)nn(C)c3C)cc12 [Compound 27, 4-{2-[(2,3-difluoro-6-{3-[(methylamino)methyl]pyrazolo[1,5-a]pyridin-5-yl}phenyl)oxy]ethyl}-1,5-dimethylpyr azole-3-carbonitrile] | 1.82 | < 10 | 5.56 |

Results, then the compound that gave them:

| IC50 (NMT1 enzyme) [nM] | IC50 (MV-4-11 cells; Homo sapiens, MV4-11, 72 h) [nM] | IC50 (MV-4-11 cells) [nM] | Structure (SMILES) |
| --- | --- | --- | --- |
| 1.95 | 10.7 |  | CNCc1cnn2ccc(-c3ccc(F)c(F)c3OCCc3c(CC#N)nn(C)c3C)cc12 [Compound 28, (4-{2-[(2,3-difluoro-6-{3-[(methylam ino)methyl]pyrazolo[1,5-a]pyridin-5-yl}phenyl)oxy]ethyl}-1,5-dimethylpyrazol-3-yl)acetonitrile] |
| 2.13 | 5.49 |  | CNCc1cnn2ccc(-c3ccc(F)cc3OCCc3c(C(C)(C)O)nn(C)c3C)cc12 [Compound 33, 2-(4-{2-[(5-fluoro-2-{3-[(methylamino)methyl]pyrazolo[1,5-a]pyridin-5-yl}phenyl)oxy]ethyl}-1,5-dimethylpyrazol-3-yl)propan-2-ol] |
| 2.05 | 5.04 |  | CNCc1cnn2ccc(-c3ccc(F)cc3OCCc3c(C(C)O)nn(C)c3C)cc12 (stereo not drawn) [Compound 35, 1-(4-{2-[(5-fluoro-2-{3-[(methylamino)methyl]pyrazolo[1,5-a]pyridin-5-yl}phenyl)oxy]ethyl}-1,5-dimethylpyrazol-3-yl)ethan-1-ol] |
